Experiment [1] has as its system 290 distinct kinases tested excluding mutant variants (321 in the larger panel). To be noted: no asterisk: panel of 290 distinct kinases.
Description: Competition binding assays used herein were developed, validated and performed as described in Fabian et al., Nature Biotechnology 2005, 23, 329-336. […] The liganded beads were blocked with excess biotin and washed with blocking buffer (SeaBlock (Pierce), 1% BSA, 0.05% Tween 20, 1 mM DTT) to remove unbound ligand and to reduce non-specific binding. […] Test compounds were prepared as 100× stocks in DMSO and rapidly diluted into the aqueous environment. DMSO was added to control assays lacking a test compound. Primary screen interactions were performed in polypropylene 384-well plates in a final volume of 34 μt, while Kd determinations were performed in polystyrene 96-well plates in a final volume of 135 pt. […] The kinase concentration in the eluates was measured by quantitative PCR. Each kinase was tested individually against each compound. Kds were determined using eleven serial threefold dilutions. A selectivity score, which is a quantitative measure of selectivity of a compound against a panel of enzymes, may be calculated for a compound by dividing the number of enzymes for which a compound meets a set criteria, (for example, a binding constant of 100 nM or less), by the total number of enzymes tested. […] (Note, for those compounds tested in a larger kinase panel, as indicated by an asterisk (*) next to the S35 score, the divisor is 321 (i.e. the larger panel contains 321 distinct kinases, excluding mutant variants.)).
For experiment [2], the system named is MEK1 phosphorylation in the A375 human melanoma cell line. Description: cells. The following applies: A-375, read-out: pMEK IC50.
Description: A375 cells (from American Type Culture Collection) were plated at 50,000 cells per well in DMEM (Mediatech) with 10% fetal bovine serum (Omega Scientific) into a 96 well plate and incubated overnight in a 37° C. incubator with 10% CO2. The cells were then washed with PBS and the medium replaced with 0.5% FBS for incubation overnight. […] The cells were incubated with compound or control for two hours at 37° C. The compound solution was aspirated off and the cells washed with cold PBS. […] The plate was centrifuged for 30 minutes to pellet out the cell debris. The cleared lysates were transferred to a 96-well Nunc plate and the ELISA protocol described by the manufacturer in Catalog #KHO0321 or KHO0291 was followed.
Experiment [3] has as its system A375 cells. Description: cells. The following applies: Homo sapiens, A-375, read-out: A375 Viability EC50.
For experiment [4], the target named is T1, RAF kinases (Homo sapiens, UniProt P04049). Description: biochemical.
T1 sequence (P04049 whole entry): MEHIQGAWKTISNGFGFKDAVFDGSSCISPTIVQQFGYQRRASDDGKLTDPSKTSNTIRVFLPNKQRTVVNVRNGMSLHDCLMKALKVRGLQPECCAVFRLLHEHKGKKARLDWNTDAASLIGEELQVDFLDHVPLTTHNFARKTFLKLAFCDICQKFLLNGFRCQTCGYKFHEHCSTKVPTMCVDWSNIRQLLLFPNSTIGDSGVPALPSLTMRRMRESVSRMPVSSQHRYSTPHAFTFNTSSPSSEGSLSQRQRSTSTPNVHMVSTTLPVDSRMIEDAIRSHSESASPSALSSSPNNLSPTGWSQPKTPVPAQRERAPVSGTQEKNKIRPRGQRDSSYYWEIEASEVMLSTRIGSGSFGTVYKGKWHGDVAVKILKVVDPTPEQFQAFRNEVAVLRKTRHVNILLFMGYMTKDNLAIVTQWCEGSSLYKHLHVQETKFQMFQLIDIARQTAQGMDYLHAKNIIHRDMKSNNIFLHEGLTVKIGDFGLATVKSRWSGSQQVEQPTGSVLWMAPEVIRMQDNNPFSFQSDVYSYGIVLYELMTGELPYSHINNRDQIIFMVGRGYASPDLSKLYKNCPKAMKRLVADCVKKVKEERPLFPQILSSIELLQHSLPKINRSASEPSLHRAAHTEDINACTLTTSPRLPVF
The target in experiment [5] is T2, RAF kinases (Homo sapiens, UniProt P15056). Description: biochemical.
T2 sequence (P15056 whole entry): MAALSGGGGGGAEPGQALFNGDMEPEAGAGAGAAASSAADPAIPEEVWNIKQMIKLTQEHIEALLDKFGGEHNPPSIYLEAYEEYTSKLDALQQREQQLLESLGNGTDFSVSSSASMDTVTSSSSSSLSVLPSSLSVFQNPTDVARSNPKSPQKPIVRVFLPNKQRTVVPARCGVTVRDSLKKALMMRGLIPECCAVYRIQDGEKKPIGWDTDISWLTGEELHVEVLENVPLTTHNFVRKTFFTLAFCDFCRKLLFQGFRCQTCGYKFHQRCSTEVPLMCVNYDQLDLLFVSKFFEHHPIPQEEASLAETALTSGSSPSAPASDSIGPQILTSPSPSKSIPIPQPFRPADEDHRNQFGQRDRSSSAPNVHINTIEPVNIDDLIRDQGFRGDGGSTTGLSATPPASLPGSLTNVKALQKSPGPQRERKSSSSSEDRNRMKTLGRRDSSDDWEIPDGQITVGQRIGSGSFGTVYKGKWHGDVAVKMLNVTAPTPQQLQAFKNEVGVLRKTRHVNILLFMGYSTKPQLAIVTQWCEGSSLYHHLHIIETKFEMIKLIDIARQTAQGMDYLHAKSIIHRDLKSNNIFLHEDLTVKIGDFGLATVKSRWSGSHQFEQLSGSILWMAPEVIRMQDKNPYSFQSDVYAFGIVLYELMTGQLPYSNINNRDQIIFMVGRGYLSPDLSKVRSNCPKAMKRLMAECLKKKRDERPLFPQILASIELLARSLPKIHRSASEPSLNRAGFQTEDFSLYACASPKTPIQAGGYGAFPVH
Experiment [6] has as its target T3, RAF kinases (Homo sapiens, UniProt P15056, V600E). Description: biochemical.
Experiment [7] has as its target T2, RAF kinases. To be noted: read-out: BRAF WT Kd; BRAF WT.
The target in experiment [8] is T1, RAF kinases. The following applies: read-out: RAF1 Kd; RAF1.
The target in experiment [9] is T3, RAF kinases. The following applies: read-out: BRAF V600E Kd; BRAF V600E.

Where two headings read alike, the source gives them in different places. Some results are limits rather than exact numbers.

T3 sequence (P15056 whole entry V600E): as the sequence (P15056 whole entry) above, with V600E counted along it

For the compound `COc1cc2ncnc(Oc3cccc(NC(=O)Nc4cc(C(C)(C)CO)no4)c3)c2cc1OC` [Ex 255, 1-(3-(6,7-dimethoxyquinazolin-4-yloxy)phenyl)-3-(3-(1-hydroxy-2-methylpropan-2-yl)isoxazol-5-yl)urea], the S35 entry in experiment [1] is recorded as “C (0.20 < C ≦ 0.40)”. For the same compound, the IC50 in [2] was greater than 1000 nM. Moreover, the EC50 in experiment [3] was greater than 1000 nM. The Kd in experiment [4] is 250 to 500 nM; in experiment [5], 250 to 500 nM; in [6] it was less than 250 nM.

As to `COc1cc2nc(Cl)nc(Oc3cccc(NC(=O)Nc4cc(C(C)(C)C)on4)c3)c2cc1OC` [Ex 310, 1-(5-tert-butylisoxazol-3-yl)-3-(3-(2-chloro-6,7-dimethoxyquinazolin-4-yloxy)phenyl)urea], the Kd in experiment [7] is greater than 1000 nM; in [4] it was 500 to 1000 nM; in [6], 500 to 1000 nM. Also, the S35 result in [1] was “A (A ≦ 0.10)”. For the same compound, the IC50 in experiment [2] was greater than 1000 nM. In [3], the EC50 is greater than 1000 nM.

As for `COc1cc2ncnc(Oc3cccc(NC(=O)Nc4cc(C(C)(F)F)nn4-c4cccnc4)c3)c2cc1OC` [Ex 311, 1-(3-(1,1-difluoroethyl)-1-(pyridin-3-yl)-1H-pyrazol-5-yl)-3-(3-(6,7-dimethoxyquinazolin-4-yloxy)phenyl)urea], the Kd in [8], in experiment [7] and in [9] was less than 250 nM throughout. Further, the S35 result in experiment [1] is on record as “C (0.20 < C ≦ 0.40)”. In addition, the IC50 in [2] is 250 to 500 nM. The EC50 in experiment [3] lay within 250 to 500 nM.

For the compound `COc1ccc(-n2nc(C(C)(F)F)cc2NC(=O)Nc2cccc(Oc3ncnc4cc(OC)c(OC)cc34)c2)cc1` [Ex 315, 1-(3-(1,1-difluoroethyl)-1-(4-methoxyphenyl)-1H-pyrazol-5-yl)-3-(3-(6,7-dimethoxyquinazolin-4-yloxy)phenyl)urea], the Kd in [7] was greater than 1000 nM; in [9] it was less than 250 nM; in experiment [4], 500 to 1000 nM. Besides, the S35 entry in experiment [1] is “D (D > 0.40)”. Further, the IC50 in experiment [2] is less than 250 nM. Besides, the EC50 in experiment [3] was less than 250 nM.

Consider `COc1cc2ncnc(Oc3cccc(NC(=O)Nc4cc(C(C)(F)F)nn4-c4cncc(F)c4)c3)c2cc1OC` [Ex 316, 1-(3-(1,1-difluoroethyl)-1-(5-fluoropyridin-3-yl)-1H-pyrazol-5-yl)-3-(3-(6,7-dimethoxyquinazolin-4-yloxy)phenyl)urea], for which the Kd in experiment [8] is less than 250 nM; in experiment [9] it was less than 250 nM; in experiment [5] it was 250 to 500 nM. Further, the S35 entry in experiment [1] was “C (0.20 < C ≦ 0.40)”. Moreover, in experiment [2], the IC50 was in the range of 250 to 500 nM. The EC50 in experiment [3] fell in the range of 500 to 1000 nM.

For the compound `COc1cc2ncnc(Oc3cccc(NC(=O)Nc4cc(C(C)(C)C)nn4-c4ccc(=O)[nH]c4)c3)c2cc1OC` [Ex 317, 1-(3-tert-butyl-1-(6-oxo-1,6-dihydropyridin-3-yl)-1H-pyrazol-5-yl)-3-(3-(6,7-dimethoxyquinazolin-4-yloxy)phenyl)urea], the Kd in experiment [7] was greater than 1000 nM; in experiment [9] it was less than 250 nM; in [4] it was 500 to 1000 nM. In addition, the S35 result in experiment [1] is “D (D > 0.40)”. Also, the IC50 in experiment [2] was greater than 1000 nM. For the same compound, the EC50 in [3] is greater than 1000 nM.

As for `COc1cc2ncnc(Oc3cccc(NC(=O)Nc4cc(C(C)(C)C)nn4-c4ccnc(C)c4)c3)c2cc1OC` [Ex 320, 1-(3-tert-butyl-1-(2-methylpyridin-4-yl)-1H-pyrazol-5-yl)-3-(3-(6,7-dimethoxyquinazolin-4-yloxy)phenyl)urea], the Kd is greater than 1000 nM in experiment [8], greater than 1000 nM in [7] and less than 250 nM in experiment [9]. Further, the S35 entry in experiment [1] is on record as “D (D > 0.40)”. The IC50 in [2] is less than 250 nM.

Regarding `CCn1nc(C(C)(C)C)cc1NC(=O)Nc1cccc(Sc2ncnc3cc(OC)c(OC)cc23)c1` [Ex 321, 1-(3-tert-butyl-1-ethyl-1H-pyrazol-5-yl)-3-(3-(6,7-dimethoxyquinazolin-4-ylthio)phenyl)urea], the figures for the dissociation constant (Kd) in experiment [8], in experiment [9] and in experiment [5] were less than 250 nM, less than 250 nM and 250 to 500 nM, respectively. In addition, the S35 result in experiment [1] was “C (0.20 < C ≦ 0.40)”. In addition, in experiment [2], the IC50 lay in the range of 250 to 500 nM. In addition, the EC50 in experiment [3] lay within 500 to 1000 nM.

As for `COc1cc2ncnc(Oc3cccc(NC(=O)Nc4cc(C(C)(C)C)nn4C4CCCCC4)c3)c2cc1OC` [Ex 330, 1-(3-tert-butyl-1-cyclohexyl-1H-pyrazol-5-yl)-3-(3-(6,7-dimethoxyquinazolin-4-yloxy)phenyl)urea], the Kd in experiment [8] is greater than 1000 nM; in [7] it was greater than 1000 nM; in experiment [9], less than 250 nM. The S35 result in experiment [1] was “C (0.20 < C ≦ 0.40)”. Further, the IC50 in experiment [2] is greater than 1000 nM. For the same compound, the EC50 in experiment [3] was greater than 1000 nM.

As for `COc1cc2ncnc(Sc3cccc(NC(=O)Nc4cc(C(C)(C)C)nn4C4CCCCC4)c3)c2cc1OC` [Ex 331, 1-(3-tert-butyl-1-cyclohexyl-1H-pyrazol-5-yl)-3-(3-(6,7-dimethoxyquinazolin-4-ylthio)phenyl)urea], the S35 result in experiment [1] is listed as “B (0.10 < B ≦ 0.20)”. The IC50 in experiment [2] is less than 250 nM. In addition, in experiment [3], the EC50 was greater than 1000 nM. For the same compound, the Kd in experiment [4] fell in the range of 500 to 1000 nM; in experiment [5], 500 to 1000 nM; in [6] it was 250 to 500 nM.

For the compound `COc1cc2ncnc(Sc3cccc(NC(=O)Nc4cc(C(C)(C)C)nn4-c4ccccn4)c3)c2cc1OC` [Ex 345, 1-(3-tert-butyl-1-(pyridin-2-yl)-1H-pyrazol-5-yl)-3-(3-(6,7-dimethoxyquinazolin-4-ylthio)phenyl)urea], the Kd in experiment [8], in experiment [7] and in experiment [9] was greater than 1000 nM each time. In experiment [1], the S35 entry is on record as “B (0.10 < B ≦ 0.20)”. In addition, in [2], the IC50 fell in the range of 500 to 1000 nM. Also, the EC50 in experiment [3] was greater than 1000 nM.

For the compound `COc1ccc(-n2nc(C(C)C)cc2NC(=O)Nc2cccc(Oc3ncnc4cc(OC)c(OC)cc34)c2)cc1` [Ex 348, 1-(3-(6,7-dimethoxyquinazolin-4-yloxy)phenyl)-3-(3-isopropyl-1-(4-methoxyphenyl)-1H-pyrazol-5-yl)urea], the values for the Kd in [7], in experiment [9] and in [4] were greater than 1000 nM, less than 250 nM and 500 to 1000 nM, respectively. Further, the S35 entry in [1] was “D (D > 0.40)”. Besides, the IC50 in [2] is less than 250 nM. In experiment [3], the concentration for a half-maximal effect (EC50) is less than 250 nM.

Take `COc1ccc(-n2nc(C(C)C)cc2NC(=O)Nc2cccc(Sc3ncnc4cc(OC)c(OC)cc34)c2)cc1` [Ex 349, 1-(3-(6,7-dimethoxyquinazolin-4-ylthio)phenyl)-3-(3-isopropyl-1-(4-methoxyphenyl)-1H-pyrazol-5-yl)urea]: the equilibrium dissociation constant (Kd) is greater than 1000 nM in [7], less than 250 nM in experiment [9] and 500 to 1000 nM in experiment [4]. Besides, in experiment [1], the S35 entry was “C (0.20 < C ≦ 0.40)”. Also, the IC50 in experiment [2] was less than 250 nM. Also, in experiment [3], the EC50 is less than 250 nM.

Consider `COc1cc2ncnc(Oc3cccc(NC(=O)Nc4cc(C(C)C)nn4-c4cccnc4)c3)c2cc1OC` [Ex 350, 1-(3-(6,7-dimethoxyquinazolin-4-yloxy)phenyl)-3-(3-isopropyl-1-(pyridin-3-yl)-1H-pyrazol-5-yl)urea], for which the Kd in experiment [8], in experiment [7] and in [9] was less than 250 nM in each case. Moreover, the S35 entry in experiment [1] is “D (D > 0.40)”. Further, the IC50 in [2] is 250 to 500 nM. The EC50 in [3] fell in the range of 250 to 500 nM.

As for `COc1cc2ncnc(Sc3cccc(NC(=O)Nc4cc(C(C)C)nn4-c4cccnc4)c3)c2cc1OC` [Ex 351, 1-(3-(6,7-dimethoxyquinazolin-4-ylthio)phenyl)-3-(3-isopropyl-1-(pyridin-3-yl)-1H-pyrazol-5-yl)urea], the Kd is less than 250 nM in experiment [8], less than 250 nM in experiment [9] and 500 to 1000 nM in experiment [5]. For the same compound, in experiment [1], the S35 result is “C (0.20 < C ≦ 0.40)”. Besides, the half-maximal inhibitory concentration (IC50) in experiment [2] is less than 250 nM. The EC50 in [3] is 250 to 500 nM.

With `CCc1cc(NC(=O)Nc2cccc(Oc3ncnc4cc(OC)c(OC)cc34)c2)n(-c2ccccc2)n1` [Ex 352, 1-(3-(6,7-dimethoxyquinazolin-4-yloxy)phenyl)-3-(3-ethyl-1-phenyl-1H-pyrazol-5-yl)urea], the Kd in [8], in [7] and in [9] was less than 250 nM in each case. Further, the S35 result in experiment [1] is recorded as “C (0.20 < C ≦ 0.40)”. Moreover, the IC50 in experiment [2] lay in the range of 500 to 1000 nM. For the same compound, the EC50 in experiment [3] was 250 to 500 nM.

For `COc1cc2ncnc(Oc3cccc(NC(=O)Nc4cc(C5CC5)nn4-c4ccccc4)c3)c2cc1OC` [Ex 353, 1-(3-cyclopropyl-1-phenyl-1H-pyrazol-5-yl)-3-(3-(6,7-dimethoxyquinazolin-4-yloxy)phenyl)urea], the equilibrium dissociation constant (Kd) in [8] was less than 250 nM; in experiment [9], less than 250 nM; in experiment [5], 250 to 500 nM. In addition, in experiment [1], the S35 entry is listed as “C (0.20 < C ≦ 0.40)”. Further, in experiment [2], the IC50 lay within 250 to 500 nM. Further, the 50% effective concentration (EC50) in experiment [3] fell in the range of 250 to 500 nM.

For `COc1cc2ncnc(Sc3cccc(NC(=O)Nc4cc(C5CC5)nn4-c4ccccc4)c3)c2cc1OC` [Ex 354, 1-(3-cyclopropyl-1-phenyl-1H-pyrazol-5-yl)-3-(3-(6,7-dimethoxyquinazolin-4-ylthio)phenyl)urea], the Kd in [8], in experiment [7] and in experiment [9] was less than 250 nM throughout. Further, the S35 entry in experiment [1] is “C (0.20 < C ≦ 0.40)”. Besides, the IC50 in experiment [2] was 250 to 500 nM. The EC50 in experiment [3] was in the range of 250 to 500 nM.

The IC50 is the concentration that gives 50% inhibition. The term EC50 denotes the concentration at which the effect is half-maximal. What is called Kd is the equilibrium constant for the complex coming apart.

(Values after patent publication US8618289B2 (Ambit Biosciences Corporation, priority 2008, dated 2013).)
